Structures are written as SMILES. Active and inactive are the calls of the source. The calls are words filed in the database; no cut-off is given here.

For experiment [1], the target named is Protein kinase C (PKC). Nature of the experiment: Inhibition of PKC (unknown origin). The format is protein assay, Homo sapiens.
Experiment [2] addresses Glycogen synthase kinase-3 beta (Homo sapiens, UniProt P49841). The experiment in a line: Inhibition of GSK3beta (unknown origin).
The target of experiment [3] is T1, Tyrosine-protein kinase JAK3 (Homo sapiens, UniProt P52333).
T1 sequence (P52333 whole entry): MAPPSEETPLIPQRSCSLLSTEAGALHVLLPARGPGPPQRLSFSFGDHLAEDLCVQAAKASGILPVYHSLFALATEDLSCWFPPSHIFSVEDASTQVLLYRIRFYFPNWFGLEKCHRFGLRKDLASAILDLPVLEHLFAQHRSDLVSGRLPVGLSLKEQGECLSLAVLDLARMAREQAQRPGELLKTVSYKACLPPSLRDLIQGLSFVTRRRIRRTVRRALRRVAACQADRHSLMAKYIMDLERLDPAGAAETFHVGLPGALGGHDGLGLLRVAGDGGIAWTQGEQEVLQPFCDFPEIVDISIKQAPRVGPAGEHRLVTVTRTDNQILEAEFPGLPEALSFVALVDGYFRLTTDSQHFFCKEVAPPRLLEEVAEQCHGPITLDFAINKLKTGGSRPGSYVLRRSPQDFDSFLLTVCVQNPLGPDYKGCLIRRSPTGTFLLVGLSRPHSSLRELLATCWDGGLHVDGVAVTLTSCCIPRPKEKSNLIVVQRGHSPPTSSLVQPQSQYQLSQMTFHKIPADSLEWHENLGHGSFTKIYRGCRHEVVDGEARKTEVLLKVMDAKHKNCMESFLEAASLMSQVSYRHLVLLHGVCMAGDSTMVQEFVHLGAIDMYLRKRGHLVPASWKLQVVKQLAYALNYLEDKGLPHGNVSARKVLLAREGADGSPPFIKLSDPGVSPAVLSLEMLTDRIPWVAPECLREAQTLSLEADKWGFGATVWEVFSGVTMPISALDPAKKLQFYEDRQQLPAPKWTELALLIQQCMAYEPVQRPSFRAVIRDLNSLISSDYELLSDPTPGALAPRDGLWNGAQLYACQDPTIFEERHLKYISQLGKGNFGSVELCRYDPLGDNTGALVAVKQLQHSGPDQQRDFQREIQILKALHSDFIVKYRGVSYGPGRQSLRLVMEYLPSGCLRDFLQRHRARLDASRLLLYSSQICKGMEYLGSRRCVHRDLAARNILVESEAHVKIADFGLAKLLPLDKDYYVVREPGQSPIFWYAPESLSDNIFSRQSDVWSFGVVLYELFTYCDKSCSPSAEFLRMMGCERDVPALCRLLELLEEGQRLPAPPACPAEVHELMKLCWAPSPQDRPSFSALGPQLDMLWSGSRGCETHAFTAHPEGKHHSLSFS
Description: Inhibition of JAK3 (unknown origin) in presence of ATP by radiometric assay

Experiment [4] is filed under the species Homo sapiens. The experiment in a line: Inhibition of AMPK (unknown origin) at 1 uM relative to control.
Experiment [5] concerns Fibroblast growth factor receptor 3 (Homo sapiens), P22607 [G697C]. To be noted: dose 500.0 nM.
A short description of experiment [6]: cells. To be noted: Homo sapiens, CD4+ve Th, 1.5 h, read-out: INH.
The target in experiment [7] is Dual specificity protein kinase CLK3 (Homo sapiens) (UniProt P49761). To be noted: dose 500.0 nM.
Description: Inhibition of CLK3 (unknown origin) at 500 nM relative to control
Experiment [8] has as its system CD4+ve Th. The following applies: Homo sapiens, dose <= 1000.0 nM, time 1.5 hrs.
The target in experiment [9] is Tyrosine-protein kinase CSK (Homo sapiens) (UniProt P41240). The following applies: dose 500.0 nM.
Description: Inhibition of CSK (unknown origin) at 500 nM relative to control
Experiment [10] addresses G protein-coupled receptor kinase 6 (Homo sapiens) (UniProt P43250). To be noted: dose 500.0 nM.
Description: Inhibition of GRK6 (unknown origin) at 500 nM relative to control
In experiment [11] the test system is CD4+ve Th. The following applies: Homo sapiens, dose 50-100 nM, time 1.5 hrs.
Experiment [12] deals with MAP kinase-activated protein kinase 2 (Homo sapiens) (UniProt P49137). To be noted: dose 500.0 nM.
Description: Inhibition of MAPKAPK2 (unknown origin) at 500 nM relative to control
Experiment [13] deals with T2, Tyrosine-protein kinase JAK3 (Homo sapiens) (UniProt P52333).
T2 sequence (whole entry): T1 sequence (P52333 whole entry)
The following applies: dose 500.0 nM.
Description: Inhibition of JAK3 (unknown origin) at 500 nM relative to control

Experiment [14] has as its system Mast/stem cell growth factor receptor Kit (Homo sapiens), P10721 [V559D,V654A]. The following applies: dose 500.0 nM.
The nature of experiment [15]: cells. To be noted: Homo sapiens, CD4+ve Th, 1.5 h, read-out: INH. The source holds these as a separate data set.
Experiment [16] concerns the target T3, Tyrosine-protein kinase Fyn (Homo sapiens, UniProt P06241). To be noted: dose 500.0 nM.
Description: Inhibition of wild-type FYN (unknown origin) at 500 nM relative to control
Experiment [17] concerns the target Mitogen-activated protein kinase kinase kinase kinase 4 (Homo sapiens) (UniProt O95819). To be noted: dose 500.0 nM.
Description: Inhibition of NIK (unknown origin) at 500 nM relative to control
In experiment [18] the test system is NPM/ALK (Nucleophosmin/ALK tyrosine kinase receptor) (Homo sapiens), Q9UM73+P06748 [F1174L]. To be noted: dose 500.0 nM.
Description: Inhibition of NPM1ALK F1174L mutant (unknown origin) at 500 nM relative to control
In experiment [19] the target is Receptor tyrosine-protein kinase erbB-4 (Homo sapiens) (UniProt Q15303). The following applies: dose 500.0 nM.
Description: Inhibition of ERBB4 (unknown origin) at 500 nM relative to control
The target of experiment [20] is Mitogen-activated protein kinase 14 (Homo sapiens) (UniProt Q16539). To be noted: dose 500.0 nM.
Description: Inhibition of p38-alpha (unknown origin) at 500 nM relative to control
Experiment [21] deals with Serine/threonine-protein kinase haspin (Homo sapiens) (UniProt Q8TF76). To be noted: dose 500.0 nM.
Description: Inhibition of GSG2 (unknown origin) at 500 nM relative to control
Experiment [22] has as its target T2, Tyrosine-protein kinase JAK3 (Homo sapiens). The following applies: HeLa, dose 100.0 nM, time 1.0 hrs.
The target of experiment [23] is Macrophage-stimulating protein receptor (Homo sapiens) (UniProt Q04912). The following applies: dose 500.0 nM.
Description: Inhibition of RON (unknown origin) at 500 nM relative to control
In experiment [24] the target is T2, Tyrosine-protein kinase JAK3 (Homo sapiens). The following applies: HeLa, dose 100.0 nM, time 2.0 hrs.
Experiment [25] deals with Phosphatidylinositol 4,5-bisphosphate 3-kinase catalytic subunit gamma isoform (Homo sapiens) (UniProt P48736). The following applies: dose 500.0 nM.
Description: Inhibition of PIK3CG (unknown origin) at 500 nM relative to control
For experiment [26], the target named is Serine/threonine-protein kinase D1 (Homo sapiens) (UniProt Q15139). The following applies: dose 500.0 nM.
Description: Inhibition of PKC-mu (unknown origin) at 500 nM relative to control
In experiment [27] the target is STE20/SPS1-related proline-alanine-rich protein kinase (Homo sapiens) (UniProt Q9UEW8). The following applies: dose 500.0 nM.
Description: Inhibition of STK39 (unknown origin) at 500 nM relative to control
Experiment [28] concerns the target Serine/threonine-protein kinase Nek6 (Homo sapiens) (UniProt Q9HC98). The following applies: dose 500.0 nM.
Description: Inhibition of NEK6 (unknown origin) at 500 nM relative to control
Experiment [29] concerns the target Phosphatidylinositol 3-kinase catalytic subunit type 3 (Homo sapiens) (UniProt Q8NEB9). To be noted: dose 500.0 nM.
Description: Inhibition of PIK3C3 (unknown origin) at 500 nM relative to control
For experiment [30], the system named is CD4+ve Th. The following applies: Homo sapiens, dose <= 1000.0 nM, time 1.5 hrs. The source holds these as a separate data set.
Experiment [31] deals with MAP kinase-activated protein kinase 3 (Homo sapiens) (UniProt Q16644). The following applies: dose 500.0 nM.
Description: Inhibition of MAPKAPK3 (unknown origin) at 500 nM relative to control
Experiment [32] deals with T3, Tyrosine-protein kinase Fyn. Nature of the experiment: Inhibition of FYN (unknown origin) by trFRET binding assay.
Experiment [33] addresses Homeodomain-interacting protein kinase 1 (Homo sapiens) (UniProt Q86Z02). The following applies: dose 500.0 nM.
Description: Inhibition of HIPK1 (unknown origin) at 500 nM relative to control
The target in experiment [34] is Hepatocyte growth factor-like protein (Homo sapiens) (UniProt P26927). The following applies: dose 500.0 nM.
Description: Inhibition of MST1 (unknown origin) at 500 nM relative to control
The target in experiment [35] is Misshapen-like kinase 1 (Homo sapiens) (UniProt Q8N4C8). The following applies: dose 100.0 nM.
Description: Inhibition of MINK1 (unknown origin) at 100 nM relative to control
The test system of experiment [36] is Epidermal growth factor receptor (Homo sapiens), P00533 [UNDEFINED MUTATION]. To be noted: dose 100.0 nM.
Description: Inhibition of EGFR d747-752/P753S double mutant (unknown origin) at 100 nM relative to control
Experiment [37] addresses Mitogen-activated protein kinase kinase kinase kinase 2 (Homo sapiens) (UniProt Q12851). The following applies: dose 100.0 nM.
Description: Inhibition of MAP4K2 (unknown origin) at 100 nM relative to control
Experiment [38] concerns Leucine-rich repeat serine/threonine-protein kinase 2 (Homo sapiens), Q5S007 [R1441C]. To be noted: dose 100.0 nM.
For experiment [39], the target named is MAP kinase-activated protein kinase 5 (Homo sapiens) (UniProt Q8IW41). The following applies: dose 100.0 nM.
Description: Inhibition of MAPKAPK5 (unknown origin) at 100 nM relative to control
Experiment [40] has as its system Epidermal growth factor receptor (Homo sapiens), P00533 [UNDEFINED MUTATION]. To be noted: dose 500.0 nM.
Description: Inhibition of EGFR d747-752/P753S double mutant (unknown origin) at 500 nM relative to control
In experiment [41] the target is Muscle, skeletal receptor tyrosine-protein kinase (Homo sapiens) (UniProt O15146). To be noted: dose 100.0 nM.
Description: Inhibition of MUSK (unknown origin) at 100 nM relative to control
Experiment [42] deals with Protein kinase C beta type (Homo sapiens) (UniProt P05771). The following applies: dose 100.0 nM.
Description: Inhibition of PKC-beta2 (unknown origin) at 100 nM relative to control
Experiment [43] has as its target Tyrosine-protein kinase Blk (Homo sapiens) (UniProt P51451). To be noted: dose 100.0 nM.
Description: Inhibition of BLK (unknown origin) at 100 nM relative to control
Experiment [44] addresses Serine/threonine-protein kinase N2 (Homo sapiens) (UniProt Q16513). To be noted: dose 100.0 nM.
Description: Inhibition of PRK2 (unknown origin) at 100 nM relative to control
Experiment [45] relates to Leucine-rich repeat serine/threonine-protein kinase 2 (Homo sapiens), Q5S007 [G2019S]. The following applies: dose 100.0 nM.
For experiment [46], the target named is Leucine-rich repeat serine/threonine-protein kinase 2 (Homo sapiens) (UniProt Q5S007). To be noted: dose 100.0 nM.
Description: Inhibition of wild-type LRRK2 (unknown origin) at 100 nM relative to control
Experiment [47] has as its target Tyrosine-protein kinase JAK2 (Homo sapiens) (UniProt O60674). The following applies: dose 100.0 nM.
Description: Inhibition of JAK2 (unknown origin) at 100 nM relative to control
For experiment [48], the target named is Protein kinase C delta type (Homo sapiens) (UniProt Q05655). To be noted: dose 100.0 nM.
Description: Inhibition of PKC-delta (unknown origin) at 100 nM relative to control
The target in experiment [49] is Ribosomal protein S6 kinase alpha-6 (Homo sapiens) (UniProt Q9UK32). The following applies: dose 100.0 nM.
Description: Inhibition of RPS6KA6 (unknown origin) at 100 nM relative to control
The test system of experiment [50] is Leucine-rich repeat serine/threonine-protein kinase 2 (Homo sapiens), Q5S007 [I2020T]. To be noted: dose 100.0 nM.
For experiment [51], the target named is MAP kinase-activated protein kinase 2 (Homo sapiens) (UniProt P49137). To be noted: dose 100.0 nM.
Description: Inhibition of MAPKAPK2 (unknown origin) at 100 nM relative to control
Experiment [52] has as its target Non-receptor tyrosine-protein kinase TNK1 (Homo sapiens) (UniProt Q13470). The following applies: dose 100.0 nM.
Description: Inhibition of TNK1 (unknown origin) at 100 nM relative to control
The target in experiment [53] is Mitogen-activated protein kinase kinase kinase 11 (Homo sapiens) (UniProt Q16584). The following applies: dose 100.0 nM.
Description: Inhibition of MAP3K11 (unknown origin) at 100 nM relative to control
Experiment [54] concerns the target Ribosomal protein S6 kinase alpha-2 (Homo sapiens) (UniProt Q15349). The following applies: dose 100.0 nM.
Description: Inhibition of RPS6KA2 (unknown origin) at 100 nM relative to control
Experiment [55] addresses Tyrosine-protein kinase ITK/TSK (Homo sapiens) (UniProt Q08881). The following applies: dose 100.0 nM.
Description: Inhibition of ITK (unknown origin) at 100 nM relative to control
For experiment [56], the target named is T2, Tyrosine-protein kinase JAK3 (Homo sapiens). The following applies: dose 100.0 nM.
Description: Inhibition of JAK3 (unknown origin) at 100 nM relative to control
Experiment [57] has as its target Vascular endothelial growth factor receptor 2 (Homo sapiens, UniProt P35968). To be noted: dose 100.0 nM.
Description: Inhibition of VEGFR2 (unknown origin) at 100 nM relative to control
Experiment [58] addresses Rho-associated protein kinase 1 (Homo sapiens) (UniProt Q13464). To be noted: dose 100.0 nM.
Description: Inhibition of ROCK1 (unknown origin) at 100 nM relative to control

MAP kinase-activated protein kinase 2 (Homo sapiens), sequence (P49137 whole entry, looked up): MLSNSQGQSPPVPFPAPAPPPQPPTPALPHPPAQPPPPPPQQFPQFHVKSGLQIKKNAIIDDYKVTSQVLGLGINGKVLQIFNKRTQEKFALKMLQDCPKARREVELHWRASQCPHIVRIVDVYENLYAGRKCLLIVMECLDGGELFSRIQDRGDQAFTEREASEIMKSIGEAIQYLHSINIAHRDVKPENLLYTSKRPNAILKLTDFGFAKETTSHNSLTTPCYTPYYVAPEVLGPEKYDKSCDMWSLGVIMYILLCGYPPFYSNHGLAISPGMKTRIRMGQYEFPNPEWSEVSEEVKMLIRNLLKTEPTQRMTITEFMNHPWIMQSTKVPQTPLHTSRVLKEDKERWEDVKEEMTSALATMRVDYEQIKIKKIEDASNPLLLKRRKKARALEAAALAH
Epidermal growth factor receptor (Homo sapiens), P00533 [UNDEFINED MUTATION], sequence (P00533 whole entry, looked up, change not shown): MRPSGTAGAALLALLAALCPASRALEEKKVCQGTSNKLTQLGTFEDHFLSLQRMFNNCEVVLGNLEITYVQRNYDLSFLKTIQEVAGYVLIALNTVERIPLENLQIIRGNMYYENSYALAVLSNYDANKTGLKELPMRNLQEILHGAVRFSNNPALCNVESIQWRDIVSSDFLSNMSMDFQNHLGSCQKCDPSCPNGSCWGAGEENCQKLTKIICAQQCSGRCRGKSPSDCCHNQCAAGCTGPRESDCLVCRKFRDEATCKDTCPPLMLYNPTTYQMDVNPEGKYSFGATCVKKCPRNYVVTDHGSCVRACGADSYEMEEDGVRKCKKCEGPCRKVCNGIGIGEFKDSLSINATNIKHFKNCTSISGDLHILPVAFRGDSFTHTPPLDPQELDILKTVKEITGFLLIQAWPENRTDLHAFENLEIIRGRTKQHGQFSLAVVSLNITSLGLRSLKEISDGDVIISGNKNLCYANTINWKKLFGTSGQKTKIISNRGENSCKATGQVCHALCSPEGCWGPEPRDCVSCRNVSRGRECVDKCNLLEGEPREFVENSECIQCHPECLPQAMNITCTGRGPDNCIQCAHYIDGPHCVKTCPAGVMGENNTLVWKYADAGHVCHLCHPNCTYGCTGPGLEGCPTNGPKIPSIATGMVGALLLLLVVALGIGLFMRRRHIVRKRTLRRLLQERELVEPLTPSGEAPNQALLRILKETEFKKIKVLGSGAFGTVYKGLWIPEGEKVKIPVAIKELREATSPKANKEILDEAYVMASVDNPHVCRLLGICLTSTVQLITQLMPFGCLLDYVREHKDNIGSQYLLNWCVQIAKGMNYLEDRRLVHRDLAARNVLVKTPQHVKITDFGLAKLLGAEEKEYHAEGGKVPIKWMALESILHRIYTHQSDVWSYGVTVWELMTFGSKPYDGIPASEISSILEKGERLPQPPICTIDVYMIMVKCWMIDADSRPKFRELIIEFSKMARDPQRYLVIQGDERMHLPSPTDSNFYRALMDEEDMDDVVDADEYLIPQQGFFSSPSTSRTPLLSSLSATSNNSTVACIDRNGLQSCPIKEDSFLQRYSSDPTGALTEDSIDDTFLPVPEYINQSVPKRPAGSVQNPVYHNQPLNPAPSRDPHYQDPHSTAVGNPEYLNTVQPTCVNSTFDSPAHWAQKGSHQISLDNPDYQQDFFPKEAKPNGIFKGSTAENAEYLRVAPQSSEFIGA
Vascular endothelial growth factor receptor 2, sequence (P35968 whole entry): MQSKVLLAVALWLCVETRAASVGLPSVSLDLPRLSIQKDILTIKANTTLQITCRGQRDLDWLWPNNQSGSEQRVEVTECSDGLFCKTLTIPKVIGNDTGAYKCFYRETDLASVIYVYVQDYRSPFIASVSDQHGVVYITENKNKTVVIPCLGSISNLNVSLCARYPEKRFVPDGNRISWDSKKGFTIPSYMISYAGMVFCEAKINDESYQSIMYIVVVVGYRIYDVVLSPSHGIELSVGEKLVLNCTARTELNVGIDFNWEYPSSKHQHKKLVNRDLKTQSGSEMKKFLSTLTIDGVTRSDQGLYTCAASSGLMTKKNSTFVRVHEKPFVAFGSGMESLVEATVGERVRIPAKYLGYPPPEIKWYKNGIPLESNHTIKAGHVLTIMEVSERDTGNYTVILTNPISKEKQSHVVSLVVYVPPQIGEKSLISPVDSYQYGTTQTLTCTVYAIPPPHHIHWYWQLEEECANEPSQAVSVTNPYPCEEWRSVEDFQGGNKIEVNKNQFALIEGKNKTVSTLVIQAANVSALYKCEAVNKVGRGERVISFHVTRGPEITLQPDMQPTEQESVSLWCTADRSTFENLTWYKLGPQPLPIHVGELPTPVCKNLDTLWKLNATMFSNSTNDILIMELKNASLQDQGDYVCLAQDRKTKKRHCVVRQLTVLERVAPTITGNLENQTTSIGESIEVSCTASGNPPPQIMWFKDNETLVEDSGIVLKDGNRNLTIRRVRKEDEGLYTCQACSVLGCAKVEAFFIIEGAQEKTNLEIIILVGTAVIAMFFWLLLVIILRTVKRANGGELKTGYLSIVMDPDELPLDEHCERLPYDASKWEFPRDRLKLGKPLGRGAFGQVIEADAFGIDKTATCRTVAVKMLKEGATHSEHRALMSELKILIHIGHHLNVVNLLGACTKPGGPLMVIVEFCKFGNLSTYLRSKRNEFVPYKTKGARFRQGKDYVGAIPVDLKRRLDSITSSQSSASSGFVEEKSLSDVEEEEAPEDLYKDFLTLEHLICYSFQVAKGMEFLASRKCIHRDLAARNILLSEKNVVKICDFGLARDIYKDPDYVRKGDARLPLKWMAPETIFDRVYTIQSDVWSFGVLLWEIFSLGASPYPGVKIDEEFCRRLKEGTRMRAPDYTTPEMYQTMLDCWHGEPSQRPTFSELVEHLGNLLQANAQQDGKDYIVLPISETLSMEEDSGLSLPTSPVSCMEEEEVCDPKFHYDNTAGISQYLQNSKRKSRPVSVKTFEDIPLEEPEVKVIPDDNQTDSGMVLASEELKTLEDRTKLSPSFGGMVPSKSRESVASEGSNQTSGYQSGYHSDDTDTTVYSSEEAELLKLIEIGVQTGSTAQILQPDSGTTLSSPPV
Muscle, skeletal receptor tyrosine-protein kinase (Homo sapiens), sequence (O15146 whole entry): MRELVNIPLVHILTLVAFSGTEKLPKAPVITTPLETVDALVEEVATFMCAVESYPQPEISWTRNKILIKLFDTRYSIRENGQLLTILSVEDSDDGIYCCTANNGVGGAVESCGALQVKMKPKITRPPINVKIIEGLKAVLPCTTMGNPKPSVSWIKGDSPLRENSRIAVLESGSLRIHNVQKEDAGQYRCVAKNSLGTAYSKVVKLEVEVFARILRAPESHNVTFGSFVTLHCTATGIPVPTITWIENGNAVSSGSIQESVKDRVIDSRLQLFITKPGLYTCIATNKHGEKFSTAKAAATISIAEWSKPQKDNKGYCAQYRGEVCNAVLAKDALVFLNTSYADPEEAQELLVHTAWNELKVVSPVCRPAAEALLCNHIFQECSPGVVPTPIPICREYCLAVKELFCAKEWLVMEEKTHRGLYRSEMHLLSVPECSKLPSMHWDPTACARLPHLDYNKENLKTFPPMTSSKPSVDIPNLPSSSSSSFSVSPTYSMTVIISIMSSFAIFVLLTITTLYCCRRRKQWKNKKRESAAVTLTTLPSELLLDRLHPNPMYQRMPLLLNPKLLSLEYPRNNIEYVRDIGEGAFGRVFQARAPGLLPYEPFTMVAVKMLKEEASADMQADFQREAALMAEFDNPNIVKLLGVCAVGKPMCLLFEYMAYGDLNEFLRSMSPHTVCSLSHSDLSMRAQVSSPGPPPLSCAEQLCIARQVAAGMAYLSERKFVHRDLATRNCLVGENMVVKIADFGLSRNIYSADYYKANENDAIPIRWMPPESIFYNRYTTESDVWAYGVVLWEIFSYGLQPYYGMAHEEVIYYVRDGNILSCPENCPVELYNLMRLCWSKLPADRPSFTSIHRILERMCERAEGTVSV
Serine/threonine-protein kinase haspin (Homo sapiens), sequence (Q8TF76 whole entry): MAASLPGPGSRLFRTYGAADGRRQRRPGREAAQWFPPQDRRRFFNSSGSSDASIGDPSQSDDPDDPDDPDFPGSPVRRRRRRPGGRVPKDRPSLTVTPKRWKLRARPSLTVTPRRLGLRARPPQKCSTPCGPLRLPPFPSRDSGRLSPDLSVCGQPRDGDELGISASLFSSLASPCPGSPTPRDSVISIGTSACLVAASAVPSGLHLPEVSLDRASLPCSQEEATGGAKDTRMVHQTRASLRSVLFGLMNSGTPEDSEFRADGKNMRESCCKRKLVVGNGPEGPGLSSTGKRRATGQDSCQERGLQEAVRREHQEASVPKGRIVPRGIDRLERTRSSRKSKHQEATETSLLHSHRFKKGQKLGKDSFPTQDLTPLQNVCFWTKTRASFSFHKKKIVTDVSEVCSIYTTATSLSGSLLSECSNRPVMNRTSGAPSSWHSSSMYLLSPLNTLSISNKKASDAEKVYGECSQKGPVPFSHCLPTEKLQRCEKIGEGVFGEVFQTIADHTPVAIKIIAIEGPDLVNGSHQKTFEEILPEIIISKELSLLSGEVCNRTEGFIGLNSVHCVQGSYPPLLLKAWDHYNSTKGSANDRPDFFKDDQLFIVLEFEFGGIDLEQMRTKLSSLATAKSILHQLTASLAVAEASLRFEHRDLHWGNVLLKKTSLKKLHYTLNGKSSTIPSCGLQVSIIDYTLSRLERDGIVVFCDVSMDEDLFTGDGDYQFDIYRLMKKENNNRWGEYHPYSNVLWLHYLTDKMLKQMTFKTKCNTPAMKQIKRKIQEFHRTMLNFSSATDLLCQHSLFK
Serine/threonine-protein kinase Nek6 (Homo sapiens), sequence (Q9HC98 whole entry): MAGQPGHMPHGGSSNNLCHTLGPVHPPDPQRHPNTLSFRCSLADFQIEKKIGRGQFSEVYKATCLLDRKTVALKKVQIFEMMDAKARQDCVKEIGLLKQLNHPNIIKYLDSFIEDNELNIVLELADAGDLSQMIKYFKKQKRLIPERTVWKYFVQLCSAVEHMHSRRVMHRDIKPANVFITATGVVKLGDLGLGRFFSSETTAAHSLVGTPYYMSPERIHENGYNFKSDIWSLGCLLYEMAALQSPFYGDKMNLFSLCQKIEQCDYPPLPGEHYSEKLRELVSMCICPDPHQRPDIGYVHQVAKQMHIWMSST

Consider `CC(C)(O)C(=O)N1CCN(c2ccc(C(F)(F)F)c(C3=C(c4c[nH]c5ccccc45)C(=O)NC3=O)c2)CC1`, for which the IC50 in experiment [1] and in experiment [2] was less than 1000 nM each time.
As to `Cn1c(=O)n([C@@H]2CC[C@@H](O)c3ccccc32)c2cc(-n3cnc4ccc(C#N)cc43)ccc21`, the concentration for half-maximal inhibition (IC50) (commonly the concentration needed to halve the response being measured) in experiment [3] was 0.9 nM.
The same measure, in the same setting: to `CN(C)C/C=C/C(=O)Nc1nc2cnc3[nH]ccc3c2n1C` belongs 7 nM.
For the molecule `CC(C)(C)[C@@H](NC(=O)c1c[nH]c2ncc(C3CC3)nc12)C(=O)N1CC(C#N)C1`, in experiment [4], the inhibition was found to be 67%.
In the case of `CN(C)C(=O)C(C#N)=Cc1ccc(-c2nc3cnc4[nH]ccc4c3n2C2CCCCC2)o1` (mixture of isomers), the inhibition was found to be 135% in experiment [5]; 65% in experiment [7]; 100% in experiment [9]; 62% in [10]; 53% in experiment [12]; 11% in experiment [13]. Moreover, the inhibition in [14] is 142%; in experiment [16], 135%; in experiment [17], 100%; in [18], 100%; in experiment [19], 100%; in [20] it was 100%. Besides, the inhibition worked out at 133% in experiment [21]; 145% in [23]; 141% in experiment [25]; 100% in [26]; 148% in experiment [27]; 100% in experiment [28]. The inhibition in [29], in experiment [31], in [33] and in experiment [34] was 100% in each case. Besides, the inhibition at 0.3 µM in experiment [6] and in experiment [15] was 100% each time. Moreover, the inhibition entry in [8] and in experiment [30] was “inactive” in each case. The inhibition entry in experiment [11], in [22] and in [24] was “Active” each time. In experiment [32], this molecule returned an IC50 of 660 nM.
With `CC1CCCCC1n1c(-c2ccc(C=C(C#N)C(=O)N(C)C)o2)nc2cnc3[nH]ccc3c21` (mixture of isomers), the inhibition in experiment [35] was determined as 100%; in [36], 100%; in experiment [37], 54%; in experiment [38] it was 22%; in experiment [39], 100%; in experiment [40], 100%. The inhibition in experiment [41] turned out to be 61%; in experiment [13] it was 3%; in experiment [42], 31%; in experiment [43], 57%; in experiment [44], 48%; in experiment [45], 48%. Also, the inhibition worked out at 34% in experiment [46]; 60% in experiment [47]; 60% in experiment [48]; 40% in experiment [49]; 40% in experiment [50]; 60% in experiment [51]. The inhibition was 51% in experiment [52]; 49% in [53]; 26% in experiment [54]; 52% in [55]; 3% in [56]; 60% in experiment [57]. Moreover, the inhibition in experiment [58] is 61%. Besides, the inhibition at 0.3 µM in [6] and in experiment [15] was 100% in each case. The inhibition result in [8] and in experiment [30] was “inactive” in each case. For the same molecule, in experiment [11], the inhibition entry is “Active”.

The values are drawn from ChEMBL document CHEMBL5653628, “Selective JAK3 Inhibitors with a Covalent Reversible Binding Mode Targeting a New Induced Fit Binding Pocket” (Cell Chem Biol, 2016).
